Results taken from patent US20110039763A1, “TARGETED ANTIMICROBIAL MOIETIES” (C3 JIAN, INC., priority 2009, published 2011).

Tests used:
microorganisms [1] = test: Peptide activities: targeting/binding, antimicrobial, growth or phenotype altering (Tables 7, 8); format: cell-based; conditions: peptides having multiple activities
Excerpt: In certain embodiments, peptides described herein can have multiple activities. Thus for example, a peptide can have both binding/targeting activity and antimicrobial activity. Such peptides can be used, e.g., in a chimeric construct, for any or all of these properties. Thus, for example, a peptide designated “B” in Table 8 can be used as a targeting peptide. If it is also designated G or M it can also be used for antimicrobial activity.
Table 8. Peptides Having Multiple Activities. B: Targeting/Binding Activity; M: Antimicrobial Activity; G: GROWTH or Phenotype Altering.

microorganisms [2] = test: Morphology, biofilm and growth disrupting peptides (Table 5); format: cell-based; design: key: A: Peptide aggregates; B: Less hyphal formation; Clumps; Diffuse clumps and small polyps; F: Diffuse growth; H: Thin; I: Growth inhibition; Microcolony formation; Rippled; Small polyps; Thick; W: Halo formation on top, microlonies on bottom
Excerpt: In certain embodiments peptides that induce alterations in phenotype or other biological activities can also be used as antimicrobial effector moieties.

| Substance | Activities (microorganisms [1]) | Organism, effect: C. jeikeium (microorganisms [2]) | Organism, effect: M. luteus (microorganisms [2]) | Organism, effect: S. epidermidis (microorganisms [2]) | Organism, effect: C. albicans (microorganisms [2]; C. albicans) | Organism, effect: C. jejuni (microorganisms [2]) | Organism, effect: MRSA (microorganisms [2]) | Organism, effect: P. aeruginosa (microorganisms [2]) | Organism, effect: S. pneumoniae (microorganisms [2]) | Organism, effect: B. subtilis (microorganisms [2]; B. subtilis) | Organism, effect: E. coli (microorganisms [2]) | Organism, effect: E. faecalis (microorganisms [2]) |
| --- | --- | --- | --- | --- | --- | --- | --- | --- | --- | --- | --- | --- |
| PF-139: peptide having multiple activities (chain 1 ALSKPAIQARTLCRRQDPP; chain 2 ALSKPAIQARTLCRRQDPP; Peptide with targeting and/or antimicrobial activity) | G B | C. jeikeium (R) | M. luteus (C) | S. epidermidis (M) | – | – | – | – | – | – | – | – |
| PF-140: peptide having multiple activities (chain 1 FHRRVIRASEWALTTRSFSTPLRSAAR; chain 2 FHRRVIRASEWALTTRSFSTPLRSAAR; Peptide with targeting and/or antimicrobial activity) | G B | C. jeikeium (D) | M. luteus (R) | S. epidermidis (D) | C. albicans (B) | C. jejuni (D) | MRSA (M) | P. aeruginosa (A) | S. pneumoniae (D) | – | – | – |
| PF-145: peptide having multiple activities (chain 1 GIVLTGRAGLVSGACSMALGVGLG; chain 2 GIVLTGRAGLVSGACSMALGVGLG; Peptide with targeting and/or antimicrobial activity) | G B | C. jeikeium (R) | M. luteus (A) | S. epidermidis (D) | – | C. jejuni (R) | MRSA (M) | – | S. pneumoniae (R) | B. subtilis (C) | – | – |
| PF-157: peptide having multiple activities (HTAVVWLAGVSGCVALSHCEPA; Peptide with targeting and/or antimicrobial activity) | G B | – | – | S. epidermidis (M) | – | – | – | – | – | – | – | – |
| PF-178: peptide having multiple activities (EVYSSPTNNVAITVQNN; Peptide with targeting and/or antimicrobial activity) | G B | – | – | S. epidermidis (D) | – | – | MRSA (M) | – | S. pneumoniae (D) | – | E. coli (C) | – |
| PF-190: peptide having multiple activities (HFILRKPLLFMIHSLKTGPLDRF; Peptide with targeting and/or antimicrobial activity) | G B | C. jeikeium (R) | – | S. epidermidis (C) | – | – | – | – | – | – | – | – |
| PF-196: peptide having multiple activities (TTARYIRRQCHTSITPLSQG; Peptide with targeting and/or antimicrobial activity) | G B | C. jeikeium (R) | – | S. epidermidis (C) | – | – | – | – | – | – | – | – |
| PF-203: peptide having multiple activities (SWKCHHLAI; Peptide with targeting and/or antimicrobial activity) | G B | C. jeikeium (R) | – | S. epidermidis (A) | – | – | – | – | – | – | – | – |
| PF-347: peptide having multiple activities (GIFTGVTVVVSLKHC; Peptide with targeting and/or antimicrobial activity) | G B | – | – | S. epidermidis (C) | – | – | MRSA (C) | – | – | – | E. coli (C) | E. faecalis (C) |
| PF-354: peptide having multiple activities (FTFSKCRASNGRGFGTLWL; Peptide with targeting and/or antimicrobial activity) | G B | – | – | – | – | – | MRSA (H) | – | – | – | – | – |
| PF-355: peptide having multiple activities (chain 1 WIAIGLLLYFSLKNQ; chain 2 WIAIGLLLYFSLKNQ; Peptide with targeting and/or antimicrobial activity) | G B | – | – | S. epidermidis (C) | – | C. jejuni (D) | MRSA (A) | P. aeruginosa (A) | S. pneumoniae (D) | – | E. coli (C) | E. faecalis (D) |
| PF-356: peptide having multiple activities (chain 1 VSIKIGAIVIGMIGLMELLTE; chain 2 VSIKIGAIVIGMIGLMELLTE; Peptide with targeting and/or antimicrobial activity) | G B | – | – | S. epidermidis (S) | – | C. jejuni (D) | MRSA (C) | P. aeruginosa (A) | S. pneumoniae (R) | – | – | E. faecalis (R) |
| PF-357: peptide having multiple activities (chain 1 MLTIIIGFIFWTMTLMLGYLIGEREGRKHE; chain 2 MLTIIIGFIFWTMTLMLGYLIGEREGRKHE; Peptide with targeting and/or antimicrobial activity) | G B | – | M. luteus (C) | S. epidermidis (M) | – | – | MRSA (M) | – | S. pneumoniae (M) | – | – | – |
| PF-374: peptide having multiple activities (chain 1 HLFFVKGMFILCQKNQINDE; chain 2 HLFFVKGMFILCQKNQINDE; Peptide with targeting and/or antimicrobial activity) | G B | – | – | S. epidermidis (C) | – | – | MRSA (M) | – | – | – | E. coli (C) | E. faecalis (C) |
| PF-376: peptide having multiple activities (chain 1 MTVFEALMLAIAFATLIVKISNKNDKK; chain 2 MTVFEALMLAIAFATLIVKISNKNDKK; Peptide with targeting and/or antimicrobial activity) | G B | – | – | S. epidermidis (C) | – | – | MRSA (C) | – | – | – | E. coli (C) | E. faecalis (C) |
| PF-379: peptide having multiple activities (chain 1 VFVVLFIIYLASKLLTKLFPIKK; chain 2 VFVVLFIIYLASKLLTKLFPIKK; Peptide with targeting and/or antimicrobial activity) | G B | – | – | S. epidermidis (C) | – | – | MRSA (C) | – | – | – | E. coli (C) | E. faecalis (C) |
| PF-380: peptide having multiple activities (chain 1 KKIIPLITLFVVTLVG; chain 2 KKIIPLITLFVVTLVG; Peptide with targeting and/or antimicrobial activity) | G B | – | – | S. epidermidis (C) | – | C. jejuni (D) | MRSA (D) | P. aeruginosa (A) | S. pneumoniae (D) | – | E. coli (C) | E. faecalis (C) |
| PF-386: peptide having multiple activities (chain 1 FTLTLITTIVAILNYKDKKK; chain 2 FTLTLITTIVAILNYKDKKK; Peptide with targeting and/or antimicrobial activity) | G B | – | – | S. epidermidis (C) | – | – | MRSA (C) | – | – | – | E. coli (C) | E. faecalis (C) |
| PF-398: peptide having multiple activities (chain 1 ILVVLAGILLVVLSYVGISKFKMNC; chain 2 ILVVLAGILLVVLSYVGISKFKMNC; Peptide with targeting and/or antimicrobial activity) | G B | – | – | S. epidermidis (C) | – | – | MRSA (C) | – | – | – | E. coli (C) | E. faecalis (C) |
| PF-399: peptide having multiple activities (chain 1 FPIISALLGAIICIAIYSFIVNRKA; chain 2 FPIISALLGAIICIAIYSFIVNRKA; Peptide with targeting and/or antimicrobial activity) | G B | – | – | S. epidermidis (C) | – | – | MRSA (C) | – | – | – | E. coli (C) | E. faecalis (C) |
| PF-407: peptide having multiple activities (chain 1 KPKNKKEKTVISYEKLLSMY; chain 2 KPKNKKEKTVISYEKLLSMY; Peptide with targeting and/or antimicrobial activity) | G B | – | – | S. epidermidis (M) | – | – | MRSA (C) | – | S. pneumoniae (R) | – | – | E. faecalis (R) |
